ChEMBL document CHEMBL1142759, “Synthesis of some diguanidino 1-methyl-2,5-diaryl-1H-pyrroles as antifungal agents” (2005)
In brackets after ≈: the same amount, converted by molar mass.

Tests used:
Candida [1] = experiment: Minimum inhibitory concentration against Candida krusei ATCC 6528 evaluated by in vitro agar diffusion and micro-broth dilution assay; assay type: functional, Candida kruisii
Candida albicans [2] = experiment: Minimum inhibitory concentration against Candida albicans V-01-191 evaluated by in vitro agar diffusion and microbroth dilution assay; assay type: functional
Aspergillus fumigatus = experiment: Minimum inhibitory concentration against Aspergillus fumigatus LSI-11 evaluated by in vitro agar diffusion and microbroth dilution assay; assay type: functional
Candida albicans [3] = experiment: Minimum inhibitory concentration against Candida albicans A261 evaluated by in vitro agar diffusion and micro-broth dilution assay; assay type: functional
Candida parapsilosis = experiment: Minimum inhibitory concentration against Candida parapsilosis ATCC 22019 evaluated by in vitro agar diffusion and micro-broth dilution assay; assay type: functional; details: Lodderomyces parapsilosis
Candida tropicalis = experiment: Minimum inhibitory concentration against Candida tropicalis ATCC750 evaluated by in vitro agar diffusion and microbroth dilution assay; assay type: functional
Nakaseomyces glabratus = experiment: Minimum inhibitory concentration against Candida glabrata ATCC 90030 evaluated by in vitro agar diffusion and microbroth dilution assay; assay type: functional
Candida [4] = experiment: Minimum inhibitory concentration against Candida krusei 1766-1 evaluated by in vitro agar diffusion and micro-broth dilution assay; assay type: functional, Candida kruisii

Cn1c(-c2ccc(NC(=N)N)cc2)ccc1-c1ccc(NC(=N)N)cc1
MIC (Candida [1]): > 16 µg/mL
MIC (Candida albicans [2]): > 16 µg/mL
MIC (Aspergillus fumigatus): > 16 µg/mL
MIC (Candida albicans [3]): > 16 µg/mL
MIC (Candida parapsilosis): > 16 µg/mL
MIC (Candida tropicalis): > 16 µg/mL
MIC (Nakaseomyces glabratus): > 16 µg/mL
MIC (Candida [4]): > 16 µg/mL

Cc1cc(NC(=N)N)ccc1-c1ccc(-c2ccc(NC(=N)N)cc2C)n1C
MIC (Candida [1]): 4 µg/mL (≈ 10.7 µM)
MIC (Candida albicans [2]): 2 µg/mL (≈ 5.33 µM)
MIC (Aspergillus fumigatus): 16 µg/mL (≈ 42.6 µM)
MIC (Candida albicans [3]): 2 µg/mL (≈ 5.33 µM)
MIC (Candida parapsilosis): 2 µg/mL (≈ 5.33 µM)
MIC (Candida tropicalis): 1 µg/mL (≈ 2.66 µM)
MIC (Nakaseomyces glabratus): 2 µg/mL (≈ 5.33 µM)
MIC (Candida [4]): 8 µg/mL (≈ 21.3 µM)

Cn1c(-c2cc(F)c(NC(=N)N)cc2F)ccc1-c1cc(F)c(NC(=N)N)cc1F
MIC (Candida [1]): > 16 µg/mL
MIC (Candida albicans [2]): > 16 µg/mL
MIC (Aspergillus fumigatus): > 16 µg/mL
MIC (Candida albicans [3]): > 16 µg/mL
MIC (Candida parapsilosis): > 16 µg/mL
MIC (Candida tropicalis): > 16 µg/mL
MIC (Nakaseomyces glabratus): > 16 µg/mL
MIC (Candida [4]): > 16 µg/mL

Cn1c(-c2ccc(N=C(N)N)c(C(F)(F)F)c2)ccc1-c1ccc(N=C(N)N)c(C(F)(F)F)c1
MIC (Candida [1]): 16 µg/mL (≈ 33.1 µM)
MIC (Candida albicans [2]): 16 µg/mL (≈ 33.1 µM)
MIC (Aspergillus fumigatus): 16 µg/mL (≈ 33.1 µM)
MIC (Candida albicans [3]): 16 µg/mL (≈ 33.1 µM)
MIC (Candida parapsilosis): 16 µg/mL (≈ 33.1 µM)
MIC (Candida tropicalis): 4 µg/mL (≈ 8.27 µM)
MIC (Nakaseomyces glabratus): 16 µg/mL (≈ 33.1 µM)
MIC (Candida [4]): 16 µg/mL (≈ 33.1 µM)

Cn1c(-c2ccc(NC(=N)N)cc2Cl)ccc1-c1ccc(NC(=N)N)cc1Cl
MIC (Candida [1]): 16 µg/mL (≈ 38.4 µM)
MIC (Candida albicans [2]): 8 µg/mL (≈ 19.2 µM)
MIC (Aspergillus fumigatus): > 16 µg/mL
MIC (Candida albicans [3]): 8 µg/mL (≈ 19.2 µM)
MIC (Candida parapsilosis): 16 µg/mL (≈ 38.4 µM)
MIC (Candida tropicalis): 4 µg/mL (≈ 9.61 µM)
MIC (Nakaseomyces glabratus): 16 µg/mL (≈ 38.4 µM)
MIC (Candida [4]): 16 µg/mL (≈ 38.4 µM)

CCC(C)n1ncn(-c2ccc(N3CCN(c4ccc(OC[C@H]5CO[C@](Cn6cncn6)(c6ccc(Cl)cc6Cl)O5)cc4)CC3)cc2)c1=O (some centres undefined) [ITRACONAZOLE]
MIC (Candida [1]): 0.25 µg/mL (≈ 0.354 µM)
MIC (Candida albicans [2]): 0.25 µg/mL (≈ 0.354 µM)
MIC (Aspergillus fumigatus): 0.12 µg/mL (≈ 0.17 µM)
MIC (Candida albicans [3]): < 0.03 µg/mL
MIC (Candida parapsilosis): 0.25 µg/mL (≈ 0.354 µM)
MIC (Candida tropicalis): 0.12 µg/mL (≈ 0.17 µM)
MIC (Nakaseomyces glabratus): 0.25 µg/mL (≈ 0.354 µM)
MIC (Candida [4]): < 0.03 µg/mL

OC(Cn1cncn1)(Cn1cncn1)c1ccc(F)cc1F [FLUCONAZOLE]
MIC (Candida [1]): > 8 µg/mL
MIC (Candida albicans [2]): 6 µg/mL (≈ 19.6 µM)
MIC (Aspergillus fumigatus): ≥ 64 µg/mL
MIC (Candida albicans [3]): 0.25 µg/mL (≈ 0.816 µM)
MIC (Candida parapsilosis): 8 µg/mL (≈ 26.1 µM)
MIC (Candida tropicalis): 8 µg/mL (≈ 26.1 µM)
MIC (Nakaseomyces glabratus): > 8 µg/mL
MIC (Candida [4]): 32 µg/mL (≈ 104 µM)

COc1cc(NC(=N)N)ccc1-c1ccc(-c2ccc(NC(=N)N)cc2OC)n1C
MIC (Candida [1]): 16 µg/mL (≈ 39.3 µM)
MIC (Candida albicans [2]): 16 µg/mL (≈ 39.3 µM)
MIC (Aspergillus fumigatus): 16 µg/mL (≈ 39.3 µM)
MIC (Candida albicans [3]): 16 µg/mL (≈ 39.3 µM)
MIC (Candida parapsilosis): 16 µg/mL (≈ 39.3 µM)
MIC (Candida tropicalis): 16 µg/mL (≈ 39.3 µM)
MIC (Nakaseomyces glabratus): 16 µg/mL (≈ 39.3 µM)
MIC (Candida [4]): 16 µg/mL (≈ 39.3 µM)
